Laboratory results: BigSolDB 2.1

COC(=O)[C@H]1[C@H]2C[C@@H]3c4[nH]c5cc(OC)ccc5c4CCN3C[C@H]2C[C@@H](OC(=O)c2cc(OC)c(OC)c(OC)c2)[C@@H]1OC
Conditions | solubility (mole fraction)
in PEG-400, 298.15 K | 0.00144
in PEG-400, 308.15 K | 0.00206
in PEG-400, 318.15 K | 0.00281
in PEG-400, 328.15 K | 0.00373
in PEG-400, 338.15 K | 0.0047

solubility (mole fraction)
Conditions | in ethanol | in ethyl acetate | in ethylene glycol | in isopropanol | in propylene glycol | in transcutol | in water
298.15 K | 9.16e-06 | 0.000521 | 5.3e-05 | 2.43e-05 | 2.88e-05 | 0.000769 | 9.71e-07
308.15 K | 1.25e-05 | 0.000608 | 7.04e-05 | 3.16e-05 | 3.38e-05 | 0.000906 | 1.25e-06
318.15 K | 1.59e-05 | 0.000723 | 9.28e-05 | 4.02e-05 | 4e-05 | 0.0011 | 1.57e-06
328.15 K | 2.07e-05 | 0.000868 | 0.000114 | 4.95e-05 | 4.63e-05 | 0.00137 | 1.9e-06
338.15 K | 2.53e-05 | 0.00104 | 0.000143 | 6.07e-05 | 5.5e-05 | 0.00161 | 2.25e-06
